From patent US7048926B2, “Methods of agonizing and antagonizing FabK” (priority 2000, dated 2006)
≈ marks a conversion by molar mass, not a printed value. Like-named read-outs stand apart in the source and are kept apart here.

How the values were obtained:
S. pneumoniae FabK = molecular target: T1, S. pneumoniae FabK (Streptococcus pneumoniae, UniProt Q9FBC5, T318A); experiment: FabK enoyl-ACP reductase assay (NADH oxidation at 340 nm); type: biochemical; conditions: for inhibition of FabK (in words): 25 uM crotonoyl ACP, 50 uM NADH, 1.25 nM enzyme
T1 construct: made in house
T1 sequence (Q9FBC5 whole entry T318A): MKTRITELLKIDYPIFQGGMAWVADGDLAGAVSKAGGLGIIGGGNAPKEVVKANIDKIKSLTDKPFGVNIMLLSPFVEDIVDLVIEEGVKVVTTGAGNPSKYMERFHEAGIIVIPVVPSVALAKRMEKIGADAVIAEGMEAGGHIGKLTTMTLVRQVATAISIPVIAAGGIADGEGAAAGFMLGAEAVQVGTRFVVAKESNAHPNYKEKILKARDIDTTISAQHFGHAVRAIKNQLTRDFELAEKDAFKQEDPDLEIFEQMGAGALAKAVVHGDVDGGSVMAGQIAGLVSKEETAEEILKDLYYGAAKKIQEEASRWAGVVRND
Method: FabK catalyses the reduction of enoyl-ACPs with the concommitant oxidation of NADH. Crotonoyl-ACP can be prepared as described below. The reduction of crotonoyl-ACP to butyryl-ACP can be monitored by following the change in absorbance at 340 nm as NADH is oxidised.
(§1) Assays were carried out in Costar 3696 half-area plates in a final assay volume of 150 ul on a Spectramax platereader. Substrates, NADH and crotonoyl ACP, were incubated with FabK enzyme in 100 mM N-[2-acetamido]-2 irminodiacetic acid (ADA), pH 6.5, 100 mM NH4Cl, 4% glycerol at 30° C. and the reaction monitored at 340 nm. This assaying can also be performed using crotonyl CoA, NADPH or an NADH analogue as a substrate.
(§2) Using the above assay, compounds can be tested for inhibition of FabK. 30 ul of a candidate compounds is added to a well of the plate. 30 ul of a 250 uM stock of NADH is then added to the well. 60 ul of a 67.5 uM stock of Crotonoyl ACP is added to the well. The plate is incubated at 30° C. for 5 min. 30 ul of a 6.25 nM stock of enzyme is then added to the well (also preincubated at 30° C.) to initiate the reaction. The plate is then monitored at A340 nm for 30 min at 30° C. Positive controls are reactions without compound. Negative controls are reactions without enzyme and without compound. Final concentrations in the assay mixture are 25 uM crotonoyl ACP, 50 uM NADH, 1.25 nM enzyme.

FabI = FabI assay, enzyme source not stated; type: biochemical
Method: (§3) FabI catalyses the reduction of enoyl-ACPs with the concommitant oxidation of NAD(P)H. Crotonoyl-ACP can be prepared as described in patent applications numbered PCT/US00/12104 and EP1997000306506. The reduction of enoyl-ACPs can be monitored by following the change in absorbance at 340 nm as NADH is oxidised. Enoyl ACPs (eg crotonoyl-ACP) can be replaced by enoyl-CoAs (eg crotonoyl-CoA)
as §1, with “FabI” for “FabK”, “iminodiacetic” for “irminodiacetic”, “6.5,” for “6.5, 100 mM NH4Cl,”, “substrate, or using a substrate suitable for FabK, such as those described above.” for “substrate.”
as §2, with “FabI.” for “FabK.”, “Negative controls are reactions without enzyme and without compound. Final concentrations in the assay mixture are 25 uM crotonoyl ACP, 50 uM NADH, 1.25 nM enzyme.” left out

S. aureus FabI = S. aureus FabI (Staphylococcus aureus, UniProt Q6GI75); experiment: FabI assay, S. aureus enzyme; type: biochemical
S. aureus FabI, sequence (Q6GI75 whole entry): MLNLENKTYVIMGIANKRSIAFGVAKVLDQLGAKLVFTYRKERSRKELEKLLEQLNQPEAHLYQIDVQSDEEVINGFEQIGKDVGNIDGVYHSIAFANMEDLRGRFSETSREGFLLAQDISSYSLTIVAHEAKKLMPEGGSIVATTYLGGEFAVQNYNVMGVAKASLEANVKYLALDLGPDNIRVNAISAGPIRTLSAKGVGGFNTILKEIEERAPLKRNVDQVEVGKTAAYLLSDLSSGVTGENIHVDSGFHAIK
Method: as §3
as §1, with “FabI” for “FabK”, “iminodiacetic” for “irminodiacetic”, “6.5,” for “6.5, 100 mM NH4Cl,”, “substrate, or using a substrate suitable for FabK, such as those described above.” for “substrate.”
as §2, with “FabI.” for “FabK.”, “Negative controls are reactions without enzyme and without compound. Final concentrations in the assay mixture are 25 uM crotonoyl ACP, 50 uM NADH, 1.25 nM enzyme.” left out

E. coli FabI = E. coli FabI (Escherichia coli, UniProt P0AEK4); experiment: FabI assay, E. coli enzyme; type: biochemical
E. coli FabI, sequence (P0AEK4 whole entry): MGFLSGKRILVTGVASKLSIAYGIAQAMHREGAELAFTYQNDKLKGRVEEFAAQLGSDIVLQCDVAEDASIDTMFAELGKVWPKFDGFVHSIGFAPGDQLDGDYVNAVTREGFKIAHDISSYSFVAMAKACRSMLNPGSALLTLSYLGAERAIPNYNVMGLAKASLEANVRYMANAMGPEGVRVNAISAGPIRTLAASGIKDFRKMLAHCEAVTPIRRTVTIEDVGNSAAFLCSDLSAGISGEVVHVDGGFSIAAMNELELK
Method: as §3
as §1, with “FabI” for “FabK”, “iminodiacetic” for “irminodiacetic”, “6.5,” for “6.5, 100 mM NH4Cl,”, “substrate, or using a substrate suitable for FabK, such as those described above.” for “substrate.”
as §2, with “FabI.” for “FabK.”, “Negative controls are reactions without enzyme and without compound. Final concentrations in the assay mixture are 25 uM crotonoyl ACP, 50 uM NADH, 1.25 nM enzyme.” left out

S. aureus Oxford = experiment: Antibacterial MIC; type: cell-based; conditions: Staphylococcus aureus, read-out: Antibacterial MIC
S. aureus WCUH29 = experiment: Antibacterial MIC; type: cell-based; conditions: Staphylococcus aureus
E. faecalis 1 = experiment: Antibacterial MIC; type: cell-based; conditions: Enterococcus faecalis, 1, read-out: Antibacterial MIC
E. faecalis 7 = experiment: Antibacterial MIC; type: cell-based
H. influenzae Q1 = experiment: Antibacterial MIC; type: cell-based; conditions: Haemophilus influenzae
H. influenzae NEMC1 = experiment: Antibacterial MIC; type: cell-based; conditions: Haemophilus influenzae
M. catarrhalis = experiment: Antibacterial MIC; type: cell-based; conditions: Moraxella catarrhalis, read-out: Antibacterial MIC
S. pneumoniae 1629 = experiment: Antibacterial MIC; type: cell-based
S. pneumoniae N1387 = experiment: Antibacterial MIC; type: cell-based; conditions: Streptococcus pneumoniae
S. pneumoniae ERY2 = experiment: Antibacterial MIC; type: cell-based; conditions: Streptococcus pneumoniae, ERY2, read-out: Antibacterial MIC
E. coli AcrAB^− = experiment: Antibacterial MIC; type: cell-based; conditions: Escherichia coli, read-out: Antibacterial MIC

Cc1[nH]c2ccccc2c1CN(C)C(=O)/C=C/c1cnc2c(c1)CCC(=O)N2 [Formula II]
inhibition of FabK (in words) (S. pneumoniae FabK): inhibit | inhibition of FabI (in words) (FabI): inhibit

CN(Cc1cn(C)c2ccccc12)C(=O)/C=C/c1cnc2c(c1)CCC(=O)N2 [Formula I]
inhibition of FabK (in words) (S. pneumoniae FabK): inhibit | inhibition of FabI (in words) (FabI): inhibit

Cl.N [NH4^+]
activation of FabK reaction over the reaction with no monovalent cations (S. pneumoniae FabK; NH4^+ at 100 mM): about 300 fold

CN(Cc1cn(C)c2ccccc12)C(=O)/C=C/c1cnc2c(c1)CCC(=O)N2 [SB-611113]
IC50 (S. pneumoniae FabK): 5.7 µM | IC50 (S. aureus FabI): 0.1 µM | IC50 (E. coli FabI): < 0.06 µM | MIC (S. aureus Oxford): ≤ 0.06 µg/mL | MIC (S. aureus WCUH29; WCUH29, read-out: Antibacterial MIC): ≤ 0.06 µg/mL | MIC (E. faecalis 1): 16 µg/mL (≈ 42.7 µM) | MIC (E. faecalis 7; Enterococcus faecalis, 7, read-out: Antibacterial MIC): 16 µg/mL (≈ 42.7 µM) | MIC (H. influenzae Q1; Q1, read-out: Antibacterial MIC): 16 µg/mL (≈ 42.7 µM) | MIC (H. influenzae NEMC1; NEMC1, read-out: Antibacterial MIC): 32 µg/mL (≈ 85.5 µM) | MIC (M. catarrhalis): ≤ 0.06 µg/mL | MIC (S. pneumoniae 1629; Streptococcus pneumoniae, 1629, read-out: Antibacterial MIC): 8 µg/mL (≈ 21.4 µM) | MIC (S. pneumoniae N1387; N1387, read-out: Antibacterial MIC): 16 µg/mL (≈ 42.7 µM) | MIC (S. pneumoniae ERY2): 8 µg/mL (≈ 21.4 µM) | MIC (E. coli AcrAB^−): 8 µg/mL (≈ 21.4 µM)

Cc1[nH]c2ccccc2c1CN(C)C(=O)/C=C/c1cnc2c(c1)CCC(=O)N2 [SB-641197]
IC50 (S. pneumoniae FabK): 5.2 µM | MIC (S. aureus Oxford): ≤ 0.06 µg/mL | MIC (S. aureus WCUH29; S. aureus WCUH29, read-out: Antibacterial MIC): ≤ 0.06 µg/mL | MIC (E. faecalis 1): 16 µg/mL (≈ 42.7 µM) | MIC (E. faecalis 7; Enterococcus faecalis, E. faecalis 7, read-out: Antibacterial MIC): 16 µg/mL (≈ 42.7 µM) | MIC (H. influenzae Q1; H. influenzae Q1, read-out: Antibacterial MIC): 1 µg/mL (≈ 2.67 µM) | MIC (H. influenzae NEMC1; H. influenzae NEMC1, read-out: Antibacterial MIC): 2 µg/mL (≈ 5.34 µM) | MIC (M. catarrhalis; M. catarrhalis): ≤ 0.06 µg/mL | MIC (S. pneumoniae 1629; Streptococcus pneumoniae, S. pneumoniae 1629, read-out: Antibacterial MIC): 8 µg/mL (≈ 21.4 µM) | MIC (S. pneumoniae N1387; S. pneumoniae N1387, read-out: Antibacterial MIC): 16 µg/mL (≈ 42.7 µM) | MIC (S. pneumoniae ERY2): 8 µg/mL (≈ 21.4 µM) | MIC (E. coli AcrAB^−): 0.5 µg/mL (≈ 1.34 µM)
